Target: T1, NLRP3 (Homo sapiens, UniProt Q96P20)
T1 construct: host or cells: THP-1 cells differentiated with PMA
Experiment: IL-1β Secretion Assay (NLRP3-dependent IL1β secretion in THP1 cells)
Type: cell-based
Conditions: PMA-differentiated THP-1 cells; compounds incubated 20 h; 2.5 μM Nigericin 3 h; HTRF IL-1β readout; read-out: IC50 IL-1β Inhibition
Outline: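 THP-1 cells differentiated with 100 ng/mL PMA for 24 h, then given compound (7-point 3-fold series, 1:200 from DMSO) for 20 h in RPMI+5% FBS. NLRP3 activated with 2.5 μM nigericin for 3 h; secreted IL-1β measured by HTRF; IC50 from logistic fit of % inhibition.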

T1 sequence (Q96P20 whole entry): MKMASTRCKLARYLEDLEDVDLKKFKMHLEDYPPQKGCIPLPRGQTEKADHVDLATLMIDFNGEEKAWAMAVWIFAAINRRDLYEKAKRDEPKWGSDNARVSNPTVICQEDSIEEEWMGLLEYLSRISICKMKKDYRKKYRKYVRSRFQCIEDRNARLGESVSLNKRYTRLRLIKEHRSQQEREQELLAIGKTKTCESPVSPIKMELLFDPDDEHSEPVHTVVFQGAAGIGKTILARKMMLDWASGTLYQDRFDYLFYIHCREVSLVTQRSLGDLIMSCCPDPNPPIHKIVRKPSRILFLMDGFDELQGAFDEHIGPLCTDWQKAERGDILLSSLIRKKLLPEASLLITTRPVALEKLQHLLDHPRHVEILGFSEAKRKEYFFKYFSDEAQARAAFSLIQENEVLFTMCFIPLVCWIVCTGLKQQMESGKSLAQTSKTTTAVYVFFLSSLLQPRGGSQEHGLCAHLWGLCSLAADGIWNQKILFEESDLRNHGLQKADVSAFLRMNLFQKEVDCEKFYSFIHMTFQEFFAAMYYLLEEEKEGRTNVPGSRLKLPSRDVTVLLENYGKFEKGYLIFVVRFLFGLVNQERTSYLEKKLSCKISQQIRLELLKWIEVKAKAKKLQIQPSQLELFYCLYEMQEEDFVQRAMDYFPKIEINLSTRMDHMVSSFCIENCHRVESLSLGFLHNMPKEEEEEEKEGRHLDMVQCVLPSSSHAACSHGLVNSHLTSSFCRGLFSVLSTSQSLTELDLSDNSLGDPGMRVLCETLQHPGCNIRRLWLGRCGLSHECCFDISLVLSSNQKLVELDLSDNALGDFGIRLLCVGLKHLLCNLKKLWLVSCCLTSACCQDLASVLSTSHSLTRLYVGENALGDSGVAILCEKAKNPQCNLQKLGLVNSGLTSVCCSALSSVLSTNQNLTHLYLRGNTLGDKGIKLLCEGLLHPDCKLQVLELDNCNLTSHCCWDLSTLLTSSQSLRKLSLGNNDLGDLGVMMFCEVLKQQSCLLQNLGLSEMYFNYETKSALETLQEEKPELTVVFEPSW

SMILES	IC50 [nM]
COc1ccc(-c2nnc(NC3CC(C)(CO)C3)n3cncc23)c(CC(F)(F)F)c1 (stereo not shown) [Compound 337, [3-({1-[4-methoxy-2-(2,2,2-trifluoroethyl)phenyl]imidazo[1,5-d][1,2,4]triazin-4-yl}amino)-1-methylcyclobutyl]methanol]	10 to 100
COc1ccc(-c2nnc(N[C@H]3C[C@@](C)(O)C3)n3cccc23)c(C2CC2)c1 [Compound 104, (1s,3s)-3-{[1-(2-cyclopropyl-4-methoxyphenyl)pyrrolo[1,2-d][1,2,4]triazin-4-yl]amino}-1-methylcyclobutan-1-ol]	10 to 100
COc1ccc(-c2nnc(Nc3cc[nH]n3)n3cncc23)c(C(F)(F)F)c1 [Compound 228, 1-[4-methoxy-2-(trifluoromethyl)phenyl]-N-(1H-pyrazol-3-yl)imidazo[1,5-d][1,2,4]triazin-4-amine]	10 to 100
OC[C@H]1C[C@@H](Nc2nnc(-c3ccc(C(F)(F)F)cc3C(F)(F)F)c3cncn23)C1 [Compound 257, [(1s,3s)-3-({1-[2,4-bis(trifluoromethyl)phenyl]imidazo[1,5-d][1,2,4]triazin-4-yl}amino)cyclobutyl]methanol]	1 to 10
COc1cccc(C(C)Nc2nnc(-c3ccc(OC)cc3C(F)(F)F)c3c(F)ccn23)c1 (stereo not shown) [Compound 148, 8-fluoro-N-[1-(3-methoxyphenyl)ethyl]-1-[4-methoxy-2-(trifluoromethyl)phenyl]pyrrolo[1,2-d][1,2,4]triazin-4-amine]	100 to 300
C[C@@H](O)CNc1nnc(-c2ccc(C(F)(F)F)cc2OC(F)F)c2cccn12 [Compound 63, (2R)-1-({1-[2-(difluoromethoxy)-4-(trifluoromethyl)phenyl]pyrrolo[1,2-d][1,2,4]triazin-4-yl}amino)propan-2-ol]	1 to 10
C[C@]1(O)CCCC[C@@H]1Nc1nnc(-c2ccc(C(F)(F)F)cc2CC(F)(F)F)c2cncn12 (racemic) [Compound 283, (1S,2S)-1-methyl-2-({1-[2-(2,2,2-trifluoroethyl)-4-(trifluoromethyl)phenyl]imidazo[1,5-d][1,2,4]triazin-4-yl}amino)cyclohexan-1-ol AND (1R,2R)-1-methyl-2-({1-[2-(2,2,2-trifluoroethyl)-4-(trifluoromethyl)phenyl]imidazo[1,5-d][1,2,4]triazin-4-yl}amino)cyclohexan-1-ol]	1 to 10
COc1ccc(-c2nnc(NCc3nncn3C)n3cccc23)c(OC(F)(F)F)c1 [Compound 92, 1-[4-methoxy-2-(trifluoromethoxy)phenyl]-N-[(4-methyl-4H-1,2,4-triazol-3-yl)methyl]pyrrolo[1,2-d][1,2,4]triazin-4-amine]	100 to 300
Cc1ccc(-c2nnc(N[C@@H]3CCCN(C)C3)n3cccc23)c(OC(F)F)c1 [Compound 33, 1-[2-(difluoromethoxy)-4-methylphenyl]-N-[(3R)-1-methylpiperidin-3-yl]pyrrolo[1,2-d][1,2,4]triazin-4-amine]	1 to 10
COc1ccc(-c2nnc(N[C@@H]3CCCN(CCO)C3)n3ccc(F)c23)c(Cl)c1 [Compound 83, 2-[(3R)-3-{[1-(2-chloro-4-methoxyphenyl)-8-fluoropyrrolo[1,2-d][1,2,4]triazin-4-yl]amino}piperidin-1-yl]ethan-1-ol]	1 to 10
CN1CCC[C@@H](Nc2nnc(-c3ccc(C(F)(F)F)cc3F)c3cccn23)C1 [Compound 19, 1-[2-fluoro-4-(trifluoromethyl)phenyl]-N-[(3R)-1-methylpiperidin-3-yl]pyrrolo[1,2-d][1,2,4]triazin-4-amine]	10 to 100
CCN1CCC[C@@H](Nc2nnc(-c3ccc(C(F)(F)F)cc3OC3CC3)c3cccn23)C1 [Compound 178, 1-[2-(cyclopropyloxy)-4-(trifluoromethyl)phenyl]-N-[(3R)-1-ethylpiperidin-3-yl]pyrrolo[1,2-d][1,2,4]triazin-4-amine]	1 to 10
COc1ccc(-c2nnc(N[C@@H]3CCCC[C@H]3O)n3nc(C)cc23)c(CC(F)(F)F)c1 [Compound 385, (1R,2R)-2-({4-[4-methoxy-2-(2,2,2-trifluoroethyl)phenyl]-2-methylpyrazolo[1,5-d][1,2,4]triazin-7-yl}amino)cyclohexan-1-ol]	1 to 10
C[C@]1(O)C[C@@H](Nc2nnc(-c3ccc(C(F)(F)F)cc3OC(F)(F)F)c3ccnn23)C1 [Compound 397, (1s,3s)-1-methyl-3-({4-[2-(trifluoromethoxy)-4-(trifluoromethyl)phenyl]pyrazolo[1,5-d][1,2,4]triazin-7-yl}amino)cyclobutan-1-ol]	1 to 10
COc1ccc(-c2nnc(NC(C)c3cccnc3)n3cncc23)c(OC(F)(F)F)c1 (single isomer, unassigned) [Compound 309]	10 to 100

The next lines start with the values.

IC50 [nM]	SMILES
1 to 10	COc1ccc(-c2nnc(N[C@@H]3CCCC[C@H]3O)n3cncc23)c(OC(F)F)c1 [Compound 270, (1R,2R)-2-({1-[2-(difluoromethoxy)-4-methoxyphenyl]imidazo[1,5-d][1,2,4]triazin-4-yl}amino)cyclohexan-1-ol]
1 to 10	O[C@@H]1CCCCC[C@@H]1Nc1nnc(-c2ccc(C(F)(F)F)cc2CC(F)(F)F)c2cccn12 (racemic) [Compound 126, (1S,2R)-2-({1-[2-(2,2,2-trifluoroethyl)-4-(trifluoromethyl)phenyl]pyrrolo[1,2-d][1,2,4]triazin-4-yl}amino)cycloheptan-1-ol AND (1R,2S)-2-({1-[2-(2,2,2-trifluoroethyl)-4-(trifluoromethyl)phenyl]pyrrolo[1,2-d][1,2,4]triazin-4-yl}amino)cycloheptan-1-ol]
1 to 10	O=C1NCCC1Nc1nnc(-c2ccc(C(F)(F)F)cc2OC(F)(F)F)c2cccn12 (stereo not shown) [Compound 124, 3-({1-[2-(trifluoromethoxy)-4-(trifluoromethyl)phenyl]pyrrolo[1,2-d][1,2,4]triazin-4-yl}amino)pyrrolidin-2-one]
< 1	CCN1CCC[C@@H](Nc2nnc(-c3ccc(OC(F)F)cc3OC(F)(F)F)c3cccn23)C1 [Compound 85, 1-[4-(difluoromethoxy)-2-(trifluoromethoxy)phenyl]-N-[(3R)-1-ethylpiperidin-3-yl]pyrrolo[1,2-d][1,2,4]triazin-4-amine]
1 to 10	COc1ccc(-c2nnc(N[C@@H]3C[C@@H](F)CN(C)C3)n3cccc23)c(OC(F)(F)F)c1 [Compound 60, N-[(3R,5R)-5-fluoro-1-methylpiperidin-3-yl]-1-[4-methoxy-2-(trifluoromethoxy)phenyl]pyrrolo[1,2-d][1,2,4]triazin-4-amine]
1 to 10	CN1C[C@@H](O)C[C@@H](Nc2nnc(-c3ccc(C(F)(F)F)cc3OC(F)F)c3cccn23)C1 [Compound 98, (3S,5R)-5-({1-[2-(difluoromethoxy)-4-(trifluoromethyl)phenyl]pyrrolo[1,2-d][1,2,4]triazin-4-yl}amino)-1-methylpiperidin-3-ol]
1 to 10	FC(F)Oc1ccc(-c2nnc(N[C@@H]3CCCOC3)n3cccc23)c(OC(F)(F)F)c1 [Compound 152, 1-[4-(difluoromethoxy)-2-(trifluoromethoxy)phenyl]-N-[(3R)-oxan-3-yl]pyrrolo[1,2-d][1,2,4]triazin-4-amine]
< 1	CN1CCC[C@@H](Nc2nnc(-c3ccc(OC(F)F)cc3OC(F)(F)F)c3cncn23)C1 [Compound 295, 1-[4-(difluoromethoxy)-2-(trifluoromethoxy)phenyl]-N-[(3R)-1-methylpiperidin-3-yl]imidazo[1,5-d][1,2,4]triazin-4-amine]
< 1	COc1ccc(-c2nnc(NC(C)c3cccc(O)c3)n3cncc23)c(C(F)(F)F)c1 (stereo not shown) [Compound 251, 3-[1-({1-[4-methoxy-2-(trifluoromethyl)phenyl]imidazo[1,5-d][1,2,4]triazin-4-yl}amino)ethyl]phenol]
1 to 10	COc1ccc(-c2nnc(N[C@@H]3C[C@@H](F)CN(C)C3)n3cncc23)c(OC(F)(F)F)c1 [Compound 210, N-[(3R,5R)-5-fluoro-1-methylpiperidin-3-yl]-1-[4-methoxy-2-(trifluoromethoxy)phenyl]imidazo[1,5-d][1,2,4]triazin-4-amine]
< 1	C[C@]1(O)C[C@@H](Nc2nnc(-c3ccc(OC(F)F)cc3OC(F)(F)F)c3cncn23)C1 [Compound 244, (1s,3s)-3-({1-[4-(difluoromethoxy)-2-(trifluoromethoxy)phenyl]imidazo[1,5-d][1,2,4]triazin-4-yl}amino)-1-methylcyclobutan-1-ol]
1 to 10	CN1C[C@H](F)C[C@@H](Nc2nnc(-c3ccc(OC(F)F)cc3OC(F)(F)F)c3cccn23)C1 [Compound 87, 1-[4-(difluoromethoxy)-2-(trifluoromethoxy)phenyl]-N-[(3R,5R)-5-fluoro-1-methylpiperidin-3-yl]pyrrolo[1,2-d][1,2,4]triazin-4-amine]
< 1	CN1CCC[C@@H](Nc2nnc(-c3ccc(C(F)(F)F)cc3C(F)(F)F)c3cncn23)C1 [Compound 217, 1-[2,4-bis(trifluoromethyl)phenyl]-N-[(3R)-1-methylpiperidin-3-yl]imidazo[1,5-d][1,2,4]triazin-4-amine]
< 1	O[C@H]1CCC[C@@H](Nc2nnc(-c3ccc(C(F)(F)F)cc3CC(F)(F)F)c3cncn23)C1 [Compound 262, (1S,3R)-3-({1-[2-(2,2,2-trifluoroethyl)-4-(trifluoromethyl)phenyl]imidazo[1,5-d][1,2,4]triazin-4-yl}amino)cyclohexan-1-ol]
< 1	Cc1ccc(-c2nnc(N[C@@H]3CCCN(C)C3)n3cncc23)c(C(F)(F)F)c1 [Compound 206, N-[(3R)-1-methylpiperidin-3-yl]-1-[4-methyl-2-(trifluoromethyl)phenyl]imidazo[1,5-d][1,2,4]triazin-4-amine]
< 1	COc1cc(C)c(-c2nnc(N[C@@H]3CCCN(C)C3)n3cccc23)c(F)c1 [Compound 118, 1-(2-fluoro-4-methoxy-6-methylphenyl)-N-[(3R)-1-methylpiperidin-3-yl]pyrrolo[1,2-d][1,2,4]triazin-4-amine]

Source: patent US20250179078A1, “INHIBITORS OF NLRP3” (PTC THERAPEUTICS, INC., priority 2022, published 2025)
